Test results published in ChEMBL document CHEMBL1201862, “PubChem BioAssay data set” (2004).
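Exposure lasted 48 hours, with cells grown in 96-well plates and compounds tested at five concentrations. GI50 is the concentration that inhibits growth by half.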 Calls of active or inactive are those of the source. Cut-off read from the data, not from the text of the source: active = GI50 up to about 1.1 µM and inactive = higher.

How the values were obtained:
Test in all cases: inhibition of tumour cell growth, NCI panel, 48 h
786-0 = tested on: 786-0
A498 = tested on: A498
A549 = tested on: A549
ACHN = tested on: ACHN
BT-549 = tested on: BT-549
CAKI-1 = tested on: CAKI-1
CCRF-CEM = tested on: CCRF-CEM
COLO 205 = tested on: COLO 205
DU-145 = tested on: DU-145
EKVX = tested on: EKVX
HCC 2998 = tested on: HCC 2998
HCT-116 = tested on: HCT-116
HCT-15 = tested on: HCT-15
HOP-62 = tested on: HOP-62
HOP-92 = tested on: HOP-92
HT-29 = tested on: HT-29
Hs-578T = tested on: Hs-578T
IGROV-1 = tested on: IGROV-1
K562 = tested on: K562
KM12 = tested on: KM12
LOX IMVI = tested on: LOX IMVI
M14 = tested on: M14
MCF7 = tested on: MCF7
MDA-MB-231 = tested on: MDA-MB-231
MDA-MB-435 = tested on: MDA-MB-435
MDA-N = tested on: MDA-N
MOLT-4 = tested on: MOLT-4
Malme-3M = tested on: Malme-3M
NCI-H226 = tested on: NCI-H226
NCI-H23 = tested on: NCI-H23
NCI-H460 = tested on: NCI-H460
NCI-H522 = tested on: NCI-H522
NCI/ADR-RES = tested on: NCI/ADR-RES
OVCAR-3 = tested on: OVCAR-3
OVCAR-4 = tested on: OVCAR-4
OVCAR-5 = tested on: OVCAR-5
OVCAR-8 = tested on: OVCAR-8
PC-3 = tested on: PC-3
RPMI-8226 = tested on: RPMI-8226
RXF 393 = tested on: RXF 393
SF-268 = tested on: SF-268
SF-295 = tested on: SF-295
SK-MEL-28 = tested on: SK-MEL-28
SK-MEL-2 = tested on: SK-MEL-2
SK-MEL-5 = tested on: SK-MEL-5
SK-OV-3 = tested on: SK-OV-3
SN12C = tested on: SN12C
SNB-19 = tested on: SNB-19
SNB-75 = tested on: SNB-75
SR = tested on: SR
SW-620 = tested on: SW-620
T47D = tested on: T47D
TK-10 = tested on: TK-10
U-251 = tested on: U-251
UACC-257 = tested on: UACC-257
UACC-62 = tested on: UACC-62
UO-31 = tested on: UO-31
HL-60 = tested on: HL-60
SF-539 = tested on: SF-539

## CC1CNC(c2ccc3c(c2)Cc2cc(C4=NC(C)CN4)ccc2-3)=N1 (centres undefined)
786-0
  GI50: 54.3 µM (inactive)
A498
  GI50: > 100 µM (inactive)
A549
  GI50: > 100 µM (inactive)
ACHN
  GI50: > 100 µM (inactive)
BT-549
  GI50: > 100 µM (inactive)
CAKI-1
  GI50: > 100 µM (inactive)
CCRF-CEM
  GI50: > 100 µM (inactive)
COLO 205
  GI50: 54 µM (inactive)
DU-145
  GI50: 65.8 µM (inactive)
EKVX
  GI50: > 100 µM (inactive)
HCC 2998
  GI50: 18.2 µM (inactive)
HCT-116
  GI50: 31.3 µM (inactive)
HCT-15
  GI50: > 100 µM
HOP-62
  GI50: 41 µM (inactive)
HOP-92
  GI50: > 100 µM (inactive)
HT-29
  GI50: 61.2 µM (inactive)
Hs-578T
  GI50: 38.1 µM (inactive)
IGROV-1
  GI50: > 100 µM (inactive)
K562
  GI50: 34.4 µM (inactive)
KM12
  GI50: 20.3 µM (inactive)
LOX IMVI
  GI50: 47.2 µM (inactive)
M14
  GI50: 40.2 µM (inactive)
MCF7
  GI50: 17.7 µM (inactive)
MDA-MB-231
  GI50: 33.6 µM (inactive)
MDA-MB-435
  GI50: 25.8 µM (inactive)
MDA-N
  GI50: 34.8 µM (inactive)
MOLT-4
  GI50: 37.8 µM (inactive)
Malme-3M
  GI50: 19.2 µM (inactive)
NCI-H226
  GI50: 55.7 µM (inactive)
NCI-H23
  GI50: 37.2 µM (inactive)
NCI-H460
  GI50: 26.6 µM (inactive)
NCI-H522
  GI50: 22.2 µM (inactive)
NCI/ADR-RES
  GI50: > 100 µM (inactive)
OVCAR-3
  GI50: 20.8 µM (inactive)
OVCAR-4
  GI50: 19.1 µM (inactive)
OVCAR-5
  GI50: > 100 µM (inactive)
OVCAR-8
  GI50: 37.2 µM (inactive)
PC-3
  GI50: 43.8 µM (inactive)
RPMI-8226
  GI50: 36.6 µM (inactive)
RXF 393
  GI50: > 100 µM (inactive)
SF-268
  GI50: 26.1 µM (inactive)
SF-295
  GI50: 71.9 µM (inactive)
SK-MEL-28
  GI50: 87.1 µM (inactive)
SK-MEL-2
  GI50: 23.2 µM (inactive)
SK-MEL-5
  GI50: 71.8 µM (inactive)
SK-OV-3
  GI50: 37.9 µM (inactive)
SN12C
  GI50: 48.1 µM (inactive)
SNB-19
  GI50: 36.6 µM (inactive)
SNB-75
  GI50: 54.2 µM (inactive)
SR
  GI50: 42.9 µM (inactive)
SW-620
  GI50: 56.1 µM (inactive)
T47D
  GI50: 35.6 µM (inactive)
TK-10
  GI50: > 100 µM (inactive)
U-251
  GI50: 19.4 µM (inactive)
UACC-257
  GI50: 32.6 µM (inactive)
UACC-62
  GI50: 28.6 µM (inactive)
UO-31
  GI50: > 100 µM (inactive)

## Clc1cc2ncn(C3CCCCO3)c2cc1Cl (centres undefined)
786-0
  GI50: 71.6 µM (inactive)
A549
  GI50: 47.8 µM (inactive)
BT-549
  GI50: 22.2 µM (inactive)
CAKI-1
  GI50: 39.4 µM (inactive)
CCRF-CEM
  GI50: 56.2 µM (inactive)
COLO 205
  GI50: 77.3 µM (inactive)
DU-145
  GI50: 81.8 µM (inactive)
EKVX
  GI50: 20 µM (inactive)
HCC 2998
  GI50: 64.6 µM (inactive)
HCT-116
  GI50: 51.9 µM (inactive)
HCT-15
  GI50: 63.2 µM
HL-60
  GI50: 30.1 µM (inactive)
HOP-62
  GI50: 69.8 µM (inactive)
HT-29
  GI50: 35.9 µM (inactive)
Hs-578T
  GI50: 23.6 µM (inactive)
IGROV-1
  GI50: 20.1 µM (inactive)
K562
  GI50: 46.2 µM (inactive)
KM12
  GI50: 14.2 µM (inactive)
LOX IMVI
  GI50: 32.5 µM (inactive)
M14
  GI50: 71.8 µM (inactive)
MCF7
  GI50: 74 µM (inactive)
MDA-MB-231
  GI50: 74.1 µM (inactive)
MDA-MB-435
  GI50: 75.9 µM (inactive)
MDA-N
  GI50: 65.8 µM (inactive)
MOLT-4
  GI50: 33.9 µM (inactive)
Malme-3M
  GI50: > 100 µM (inactive)
NCI-H226
  GI50: 17.5 µM (inactive)
NCI-H23
  GI50: 70.3 µM (inactive)
NCI-H522
  GI50: 4.7 µM (inactive)
NCI/ADR-RES
  GI50: 36.9 µM (inactive)
OVCAR-3
  GI50: 41 µM (inactive)
OVCAR-4
  GI50: 48.9 µM (inactive)
OVCAR-5
  GI50: > 100 µM (inactive)
OVCAR-8
  GI50: 56.6 µM (inactive)
PC-3
  GI50: 34.6 µM (inactive)
RPMI-8226
  GI50: 66.8 µM (inactive)
RXF 393
  GI50: 44.7 µM (inactive)
SF-268
  GI50: 34.6 µM (inactive)
SF-295
  GI50: 70.5 µM (inactive)
SF-539
  GI50: 96.4 µM (inactive)
SK-MEL-28
  GI50: 39.4 µM (inactive)
SK-MEL-2
  GI50: > 100 µM (inactive)
SK-MEL-5
  GI50: 38.4 µM (inactive)
SK-OV-3
  GI50: > 100 µM (inactive)
SN12C
  GI50: 99.1 µM (inactive)
SNB-19
  GI50: > 100 µM (inactive)
SNB-75
  GI50: 11.7 µM (inactive)
SR
  GI50: 28.1 µM (inactive)
SW-620
  GI50: 53.7 µM (inactive)
T47D
  GI50: 44.6 µM (inactive)
U-251
  GI50: 39.5 µM (inactive)
UACC-62
  GI50: 53.5 µM (inactive)
UO-31
  GI50: 16.1 µM (inactive)

## CC(=O)Nc1ccc(N2C(=O)CS(=O)(=O)C2c2cccc(Oc3ccccc3)c2)cc1 (centres undefined)
786-0
  GI50: 17.1 µM (inactive)
A549
  GI50: 20 µM (inactive)
ACHN
  GI50: 16.6 µM (inactive)
BT-549
  GI50: 16.8 µM (inactive)
CCRF-CEM
  GI50: 53.1 µM (inactive)
COLO 205
  GI50: 17.2 µM (inactive)
DU-145
  GI50: 33.7 µM (inactive)
EKVX
  GI50: 15.4 µM (inactive)
HCT-116
  GI50: 20.1 µM (inactive)
HCT-15
  GI50: 17.3 µM
HL-60
  GI50: 23.5 µM (inactive)
HOP-62
  GI50: 19.3 µM (inactive)
HOP-92
  GI50: 13.8 µM (inactive)
HT-29
  GI50: 19.1 µM (inactive)
Hs-578T
  GI50: 28.9 µM (inactive)
K562
  GI50: 18.8 µM (inactive)
KM12
  GI50: 17.2 µM (inactive)
LOX IMVI
  GI50: 15.7 µM (inactive)
M14
  GI50: 18 µM (inactive)
MCF7
  GI50: 18.7 µM (inactive)
MDA-MB-231
  GI50: 17.4 µM (inactive)
MDA-MB-435
  GI50: 21.2 µM (inactive)
MDA-N
  GI50: 16.8 µM (inactive)
MOLT-4
  GI50: 29.7 µM (inactive)
Malme-3M
  GI50: 20.4 µM (inactive)
NCI-H226
  GI50: 17.2 µM (inactive)
NCI-H23
  GI50: 18.5 µM (inactive)
NCI-H460
  GI50: 17.8 µM (inactive)
NCI-H522
  GI50: 17.2 µM (inactive)
NCI/ADR-RES
  GI50: 17.6 µM (inactive)
OVCAR-3
  GI50: 17.5 µM (inactive)
OVCAR-4
  GI50: 14.2 µM (inactive)
OVCAR-5
  GI50: 17.6 µM (inactive)
OVCAR-8
  GI50: 16.7 µM (inactive)
PC-3
  GI50: 16.8 µM (inactive)
RXF 393
  GI50: 18.9 µM (inactive)
SF-268
  GI50: 20.2 µM (inactive)
SF-295
  GI50: 17 µM (inactive)
SF-539
  GI50: 19.5 µM (inactive)
SK-MEL-28
  GI50: 21.9 µM (inactive)
SK-MEL-2
  GI50: 19.2 µM (inactive)
SK-MEL-5
  GI50: 14.7 µM (inactive)
SK-OV-3
  GI50: 27.4 µM (inactive)
SN12C
  GI50: 15.1 µM (inactive)
SNB-19
  GI50: 18 µM (inactive)
SNB-75
  GI50: 19.4 µM (inactive)
SR
  GI50: 20.3 µM (inactive)
SW-620
  GI50: 28.9 µM (inactive)
T47D
  GI50: 15.9 µM (inactive)
TK-10
  GI50: 20.4 µM (inactive)
U-251
  GI50: 17.7 µM (inactive)
UACC-257
  GI50: 16.8 µM (inactive)
UACC-62
  GI50: 13.4 µM (inactive)
UO-31
  GI50: 17.5 µM (inactive)
